Consider eleven molecules from patent US20140051679A1, “KINASE INHIBITORS AND METHOD OF TREATING CANCER WITH SAME” (UNIVERISTY HEALTH NETWORKS, priority 2011, published 2014).

The structures appear in SMILES notation. A value given as a limit tells only on which side of the number the result lay.

By GI50 is commonly meant the concentration giving 50% growth inhibition. A word on the IC50: it is the concentration that inhibits the measured activity by half.

The test system of assay [1] is OVCAR-3 ovarian cancer cells. The experiment in a line: Cell growth inhibition, Sulforhodamine B assay, OVCAR-3. Type of assay: cell-based. To be noted: Homo sapiens, 120 h, 5 days culture, SRB assay, read-out: Cell Line GI50 Range OVCAR-3. (In general: Sulforhodamine B stains cellular protein and so reports cell mass.)
The next assay has as its system HT29 colon cancer cells. The experiment in a line: Cell growth inhibition, Sulforhodamine B assay, HT29. In kind it is cell-based. Conditions: Homo sapiens, HT-29, 120 h, 5 days culture, SRB assay, read-out: Cell Line GI50 Range HT29.
Assay [2] concerns MDA-MB-468 breast cancer cells. The experiment in a line: Cell growth inhibition, Sulforhodamine B assay, MDA-MB-468. In kind it is cell-based. Conditions: Homo sapiens, 120 h, 5 days culture, SRB assay, read-out: Cell Line GI50 Range MDA-MB-468.
In assay [3] the test system is MDA-MB-231 breast cancer cells. Kind of assay: Cell growth inhibition, Sulforhodamine B assay, MDA-MB-231. In kind it is cell-based. To be noted: Homo sapiens, 120 h, 5 days culture, SRB assay, read-out: Cell Line GI50 Range MDA-MB-231.
Procedure: Breast cancer cells (MDA-MB-231, MDA-MB-468), colon cancer cells (HCT116, HT29) and ovarian cancer cells (PA-1, OVCAR-3) were seeded (1000 to 4000 in 80 μl per well depending on the cell growth rate) into 96 well plates 24 hours before compound overlay. Compounds were prepared as 10 mM stock solutions in 100% DMSO which were diluted with DMEM (Dulbecco's Modified Eagle's Medium) cell growth Medium (Invitrogen, Burlington, ON, Canada) containing 10% FBS (Fetal Bovine Serum) to concentrations ranging from 50 nM to 250 μM. Aliquots (20 μl) from each concentration were overlaid to 80 μl of the pre-seeded cells in the 96 well plates to make final concentrations of 10 nM to 50 μM. The cells were cultured for 5 days before the Sulforhodamine B assay (SRB) was performed to determine the compound's cell growth inhibition activity.
Sulforhodamine B (purchased from Sigma, Oakville, ON, Canada) is a water-soluble dye that binds to the basic amino acids of the cellular proteins. Thus, colorimetric measurement of the bound dye provides an estimate of the total protein mass that is related to the cell number. the cells are fixed in situ by gently aspirating off the culture media and adding 50 μl ice cold 10% Trichloroacetic Acid (TCA) per well and incubate at 4° C. for 30-60 min, The plates are washed with water five times and allowed to air dry for 5 min. Addition of 50 μl 0.4% (w/v) SRB solution in 1% (v/v) acetic acid to each well and incubatation for 30 min at RT completes the staining reaction. Following staining, plates are washed four times with 1% acetic acid to remove unbound dye and then allowed to air dry for 5 min. The stain is solubilized with 100 μl of 10 mM Tris pH 10.5 per well. Absorbance is read at 570 nm.
The percentage (%) of relative growth inhibition was calculated by comparing to DMSO treated only cells (100%). […] The GI50 was calculated using GraphPad PRISM software (GraphPad Software, Inc., San Diego, Calif., USA).
For assay [4], the system named is HCT116 colon cancer cells. Kind of assay: Cell growth inhibition, Sulforhodamine B assay, HCT116. Type of assay: cell-based. Conditions: Homo sapiens, HCT-116, 120 h, 5 days culture, SRB assay, read-out: Cell Line GI50 Range HCT116.
A further assay has as its target T1, human TTK (Homo sapiens, UniProt P33981).
T1 construct: amino terminal GST fusion of full length human TTK; purchased Invitrogen
T1 sequence (P33981 1-857): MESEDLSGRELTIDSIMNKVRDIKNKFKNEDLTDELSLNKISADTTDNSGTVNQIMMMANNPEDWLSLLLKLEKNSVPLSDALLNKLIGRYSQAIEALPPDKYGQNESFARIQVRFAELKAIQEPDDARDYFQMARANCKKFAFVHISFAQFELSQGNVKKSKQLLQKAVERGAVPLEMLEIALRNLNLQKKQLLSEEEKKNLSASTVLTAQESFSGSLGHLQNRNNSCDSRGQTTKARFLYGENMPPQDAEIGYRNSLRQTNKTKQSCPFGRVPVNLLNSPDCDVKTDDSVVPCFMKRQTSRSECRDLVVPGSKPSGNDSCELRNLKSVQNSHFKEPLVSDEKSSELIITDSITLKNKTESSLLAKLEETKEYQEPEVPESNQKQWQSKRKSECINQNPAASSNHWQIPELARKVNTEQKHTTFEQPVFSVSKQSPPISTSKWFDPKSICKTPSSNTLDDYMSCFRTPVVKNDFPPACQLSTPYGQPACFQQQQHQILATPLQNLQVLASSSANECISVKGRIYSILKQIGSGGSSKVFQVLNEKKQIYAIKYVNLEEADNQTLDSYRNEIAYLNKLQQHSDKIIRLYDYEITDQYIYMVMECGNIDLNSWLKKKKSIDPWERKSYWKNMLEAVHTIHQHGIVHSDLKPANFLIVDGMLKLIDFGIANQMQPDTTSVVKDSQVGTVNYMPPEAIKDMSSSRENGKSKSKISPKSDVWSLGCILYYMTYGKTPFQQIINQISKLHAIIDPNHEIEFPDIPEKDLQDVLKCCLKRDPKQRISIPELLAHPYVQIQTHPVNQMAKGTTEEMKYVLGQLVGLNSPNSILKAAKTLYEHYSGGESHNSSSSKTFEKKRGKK
The experiment in a line: TTK inhibition assay (indirect ELISA). Type of assay: biochemical. Conditions: GST-TTK 0.68 nM, 16 μM ATP; read-out: IC50 Ranges TTK. (In general: An ELISA detects its analyte on a solid surface through an enzyme-linked reagent.)

The target in the next assay is T2, Aurora B (Homo sapiens, UniProt Q96GD4).
T2 construct: purchased Invitrogen PV3970
T2 sequence (Q96GD4 whole entry): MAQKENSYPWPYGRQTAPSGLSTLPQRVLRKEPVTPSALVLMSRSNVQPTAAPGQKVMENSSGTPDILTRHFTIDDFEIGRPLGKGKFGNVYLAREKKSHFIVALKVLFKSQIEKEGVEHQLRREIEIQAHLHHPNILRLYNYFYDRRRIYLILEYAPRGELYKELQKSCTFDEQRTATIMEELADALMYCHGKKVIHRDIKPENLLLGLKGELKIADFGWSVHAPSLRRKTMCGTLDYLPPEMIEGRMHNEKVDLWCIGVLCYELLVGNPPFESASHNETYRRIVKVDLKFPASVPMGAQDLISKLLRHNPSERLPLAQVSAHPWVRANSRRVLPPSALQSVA
The experiment in a line: Aurora B inhibition assay (Z-Lyte). To be noted: 28 nM Aurora B, 128 μM ATP; read-out: IC50 Ranges Aurora B. In kind it is biochemical. How it is done: Aurora B inhibition was determined using the Z-Lyte assay kit from Invitrogen. The assay was performed using the recommended manufacturer's instructions with 128 μM ATP and 28 nM Aurora B (Invitrogen cat #PV3970). The % inhibition values were determined according to the manufacturer's directions and IC50 values were obtained using a non-linear 4 point logistic curve fit (XLfit4, IDBS)

A further assay deals with T3, human PLK4 (Homo sapiens, UniProt O00444).
T3 construct: amino terminal GST fusion of residues 1-391 of human PLK4; made in house; host or cells: E. coli
T3 sequence (O00444 1-391): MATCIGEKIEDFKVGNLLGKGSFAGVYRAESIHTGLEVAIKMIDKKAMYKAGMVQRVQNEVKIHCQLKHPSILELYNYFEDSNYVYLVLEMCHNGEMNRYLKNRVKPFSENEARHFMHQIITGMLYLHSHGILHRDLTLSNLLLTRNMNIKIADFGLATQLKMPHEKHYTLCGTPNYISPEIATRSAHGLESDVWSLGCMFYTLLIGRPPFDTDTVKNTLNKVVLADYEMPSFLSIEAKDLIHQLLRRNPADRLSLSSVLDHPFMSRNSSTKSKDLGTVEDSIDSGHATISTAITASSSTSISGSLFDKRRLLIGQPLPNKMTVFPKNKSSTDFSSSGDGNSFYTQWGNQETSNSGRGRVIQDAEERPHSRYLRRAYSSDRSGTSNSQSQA
Kind of assay: PLK4 inhibition assay (indirect ELISA). In kind it is biochemical. Conditions: GST-PLK4 4 nM, 15 μM ATP; read-out: IC50 Ranges PLK4. The gist of the method: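 Compounds were tested either at a single 10 μM dose or across 10-point titrations (typically 0.5 to 0.001 μM), preincubated 15 min with 4 nM GST-PLK4 (human 1-391, dephosphorylated) before 15 μM ATP was added. MBP substrate phosphorylation over 30 min, pH 7.5 HEPES/MgCl2 buffer, read by HRP/TMB ELISA (450 nm). % inhibition vs. high-activity control; IC50 by logistic fit.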

With `O=C(Nc1ccc2[nH]nc(-c3ccc(OCCN4CCCC4)cc3)c2c1)C(c1ccsc1)N1CCCC1` (stereo not shown) [Example A44, 2-(pyrrolidin-1-yl)-N-(3-(4-(2-(pyrrolidin-1-yl)ethoxy)phenyl)-1H-indazol-5-yl)-2-(thiophen-3-yl)acetamideamide], the 50% growth inhibitory concentration (GI50) (in assay [1]; with HT29 colon cancer cells; in assay [2]; in assay [3]; in assay [4]) was no more than 5 µM throughout. The IC50 on human TTK, at Aurora B and on human PLK4 was no more than 5 µM each time.

In the case of `O=C(Nc1ccc2[nH]nc(-c3ccc(OCCCN4CCOCC4)cc3)c2c1)C(c1ccsc1)N1CCCC1` (stereo not shown) [Example A45, N-(3-(4-(3-morpholinopropoxy)phenyl)-1H-indazol-5-yl)-2-(pyrrolidin-1-yl)-2-(thiophen-3-yl)acetamide], the GI50 in assay [1] was 5 to 20 µM; in the assay on HT29 colon cancer cells, no more than 5 µM; in assay [2] it was no more than 5 µM; in assay [3] it was no more than 5 µM; in assay [4] it was no more than 5 µM. Also, the half-maximal inhibitory concentration (IC50) on human TTK, at Aurora B and at human PLK4 was no more than 5 µM throughout.

On to `O=C(Nc1ccc2[nH]nc(-c3ccc(OC4CCNCC4)c(Cl)c3)c2c1)C(c1ccsc1)N1CCCC1` (stereo not shown) [Example A34, N-(3-(3-chloro-4-(piperidin-4-yloxy)phenyl)-1H-indazol-5-yl)-2-(pyrrolidin-1-yl)-2-(thiophen-3-yl)acetamide], for which the 50% growth inhibitory concentration (GI50) (in assay [1]; in the assay with HT29 colon cancer cells; in assay [2]; in assay [3]; in assay [4]) was no more than 5 µM throughout. For the same molecule, the IC50 on human TTK, at Aurora B and at human PLK4 was no more than 5 µM throughout.

As for `C[C@H](NC(=O)c1ccc2[nH]nc(-c3ccc(OC4CCN(C)CC4)cc3)c2c1)C1CCCCC1` [Example A38, (S)—N-(1-cyclohexylethyl)-3-(4-((1-methylpiperidin-4-yl)oxy)phenyl)-1H-indazole-5-carboxamide], the GI50 (in assay [1]; with HT29 colon cancer cells; in assay [2]; in assay [3]; in assay [4]) was no more than 5 µM in each case. In addition, the IC50 on human TTK, on Aurora B and at human PLK4 was no more than 5 µM in each case.

For `CCC(NC(=O)c1ccc2[nH]nc(-c3ccc(OC4CCN(C)CC4)cc3)c2c1)C1CCCCC1` (stereo not shown) [Example A69, N-(1-cyclohexylpropyl)-3-(4-((1-methylpiperidin-4-yl)oxy)phenyl)-1H-indazole-5-carboxamide], the GI50 (in assay [1]; in the assay with HT29 colon cancer cells; in assay [2]; in assay [3]; in assay [4]) was no more than 5 µM in each case. The IC50 on human TTK, on Aurora B and at human PLK4 was no more than 5 µM in each case.

`CN(C)CCCOc1ccc(-c2n[nH]c3ccc(NC(=O)C(c4ccsc4)N4CCCC4)cc23)cc1` (stereo not shown) [Example A43, N-(3-(4-(3-(dimethylamino)propoxy)phenyl)-1H-indazol-5-yl)-2-(pyrrolidin-1-yl)-2-(thiophen-3-yl)acetamide]: the 50% growth inhibitory concentration (GI50) (in assay [1]; with HT29 colon cancer cells; in assay [2]; in assay [3]; in assay [4]) was no more than 5 µM in each case. Also, the IC50 at human TTK, on Aurora B and at human PLK4 was no more than 5 µM throughout.

Take `CN1CCC(Oc2ccc(-c3n[nH]c4ccc(NC(=O)C(c5ccsc5)N5CCCCC5)cc34)cc2)CC1` (stereo not shown) [Example A31, N-(3-(4-((1-methylpiperidin-4-yl)oxy)phenyl)-1H-indazol-5-yl)-2-(piperidin-1-yl)-2-(thiophen-3-yl)acetamide]: the GI50 (in assay [1]; with HT29 colon cancer cells; in assay [2]; in assay [3]; in assay [4]) was no more than 5 µM each time. The half-inhibitory concentration (IC50) on human TTK, on Aurora B and on human PLK4 was no more than 5 µM each time.

Turning to `C[C@@H](NC(=O)c1ccc2[nH]nc(-c3ccc(OC4CCN(C)CC4)cc3)c2c1)c1cccs1` [Example A55, (R)-3-(4-((1-methylpiperidin-4-yl)oxy)phenyl)-N-(1-(thiophen-2-yl)ethyl)-1H-indazole-5-carboxamide], the concentration for 50% growth inhibition (GI50) (in assay [1]; in the assay with HT29 colon cancer cells; in assay [2]; in assay [3]; in assay [4]) was no more than 5 µM in each case. Moreover, the concentration for half-maximal inhibition (IC50) on human TTK, on Aurora B and on human PLK4 was no more than 5 µM each time.

As to `C[C@@H](NC(=O)c1ccc2[nH]nc(-c3ccc(N4CCOCC4)cc3)c2c1)c1cccs1` [Example A53, (R)-3-(4-morpholinophenyl)-N-(1-(thiophen-2-yl)ethyl)-1H-indazole-5-carboxamide], the concentration for 50% growth inhibition (GI50) was 5 to 20 µM in assay [1]; no more than 5 µM in the assay on HT29 colon cancer cells; no more than 5 µM in assay [2]; no more than 5 µM in assay [3]; no more than 5 µM in assay [4]. For the same molecule, the IC50 on human TTK and at human PLK4 was no more than 5 µM in each case.

On to `Cc1cc(-c2n[nH]c3ccc(C(=O)NC(c4ccccc4)C4CC4)cc23)ccc1N1CCOCC1` (stereo not shown) [Example A64, N-(cyclopropyl(phenyl)methyl)-3-(3-methyl-4-morpholinophenyl)-1H-indazole-5-carboxamide], for which the GI50 is 20 to 50 µM in assay [1]; no more than 5 µM in the assay with HT29 colon cancer cells; 5 to 20 µM in assay [2]; 5 to 20 µM in assay [3]; no more than 5 µM in assay [4]. Besides, the IC50 at human TTK and at human PLK4 was no more than 5 µM in each case.

For `CN1CCC(Oc2ccc(-c3n[nH]c4ccc(C(=O)NCC(c5ccsc5)N5CCOCC5)cc34)cc2)CC1` (stereo not shown) [Example A75, 3-(4-((1-methylpiperidin-4-yl)oxy)phenyl)-N-(2-morpholino-2-(thiophen-3-yl)ethyl)-1H-indazole-5-carboxamide], the 50% growth inhibitory concentration (GI50) in assay [1] is 5 to 20 µM; in the assay on HT29 colon cancer cells, no more than 5 µM; in assay [2], no more than 5 µM; in assay [3], 5 to 20 µM; in assay [4], no more than 5 µM. Also, the IC50 on human TTK and on human PLK4 was no more than 5 µM each time.
